Test results published in US12357644B2, “Acetyl salicylic acid composition for intravenous administration, its storage, production and use” (HYLORIS DEVELOPMENTS SA, priority 2022, dated 2025).

Assay: Salicylic acid content in sample solutions kept at benchtop
Assay type: physicochemical
Settings: for Average conc. salicylic acid: no pH adjustment; for Average conc. salicylic acid / Average conc. of salicylic acid: benchtop
Procedure: In addition, storage stability screenings were conducted. The solutions prepared as previously described, were kept on a benchtop at 24+/−3° C. and 70% relative humidity. For media with no pH adjustment, the degradation of ASA is higher in ethanol as compared to the other media in the test (see Table 8). For media with pH adjustment, degradation of ASA in acidified TBA, acidified water and acidified water with mannitol were almost similar. Degradation in acidified TBA was higher than in acidified ethanol at 24+/−3° C. and 70% relative humidity (see Table 9).
It was observed that acidified ethanol has the highest solubility and stability. […] The finding of up to 72 hours stability is critical, because it allows manipulations during the manufacturing process and a manufacturing run of up to 3 days.

Average conc. salicylic acid (60 g/L mannitol, 0 hr): 0.262 mg/mL
Average conc. salicylic acid (60 g/L mannitol, 72 Hrs): 0.897 mg/mL
Average conc. salicylic acid (60 g/L mannitol, 6 hrs): 0.285 mg/mL
Average conc. salicylic acid (60 g/L mannitol, 12 hrs): 0.312 mg/mL
Average conc. salicylic acid (60 g/L mannitol, 24 hrs): 0.574 mg/mL
Average conc. salicylic acid (60 g/L mannitol, 48 hrs): 0.863 mg/mL
Average conc. of salicylic acid (Acidified 60 g/L mannitol, 0 hr): 0.153 mg/mL
Average conc. of salicylic acid (Acidified 60 g/L mannitol, 72 Hrs): 0.403 mg/mL
Average conc. of salicylic acid (Acidified 60 g/L mannitol, 6 hrs): 0.167 mg/mL
Average conc. of salicylic acid (Acidified 60 g/L mannitol, 12 hrs): 0.218 mg/mL
Average conc. of salicylic acid (Acidified 60 g/L mannitol, 24 hrs): 0.260 mg/mL
Average conc. of salicylic acid (Acidified 60 g/L mannitol, 48 hrs): 0.322 mg/mL
Average conc. of salicylic acid (Acidified Tert-butyl alcohol, 0 hr): 0.237 mg/mL
Average conc. of salicylic acid (Acidified Tert-butyl alcohol, 72 Hrs): 8.176 mg/mL
Average conc. of salicylic acid (Acidified Tert-butyl alcohol, 6 hrs): 0.388 mg/mL
Average conc. of salicylic acid (Acidified Tert-butyl alcohol, 12 hrs): 1.737 mg/mL
Average conc. of salicylic acid (Acidified Tert-butyl alcohol, 24 hrs): 3.135 mg/mL
Average conc. of salicylic acid (Acidified Tert-butyl alcohol, 48 hrs): 5.403 mg/mL
Average conc. of salicylic acid (Acidified ethanol 96%, 0 hr): 0.901 mg/mL
Average conc. of salicylic acid (Acidified ethanol 96%, 72 Hrs): 1.627 mg/mL
Average conc. of salicylic acid (Acidified ethanol 96%, 6 hrs): 0.947 mg/mL
Average conc. of salicylic acid (Acidified ethanol 96%, 12 hrs): 1.130 mg/mL
Average conc. of salicylic acid (Acidified ethanol 96%, 24 hrs): 1.280 mg/mL
Average conc. of salicylic acid (Acidified ethanol 96%, 48 hrs): 1.430 mg/mL
Average conc. of salicylic acid (Acidified water, 0 hr): 0.162 mg/mL
Average conc. of salicylic acid (Acidified water, 72 Hrs): 0.402 mg/mL
Average conc. of salicylic acid (Acidified water, 6 hrs): 0.168 mg/mL
Average conc. of salicylic acid (Acidified water, 12 hrs): 0.217 mg/mL
Average conc. of salicylic acid (Acidified water, 24 hrs): 0.269 mg/mL
Average conc. of salicylic acid (Acidified water, 48 hrs): 0.327 mg/mL
Average conc. salicylic acid (Ethanol 96%, 0 hr): 1.092 mg/mL
Average conc. salicylic acid (Ethanol 96%, 72 Hrs): 24.768 mg/mL
Average conc. salicylic acid (Ethanol 96%, 6 hrs): 1.961 mg/mL
Average conc. salicylic acid (Ethanol 96%, 12 hrs): 3.315 mg/mL
Average conc. salicylic acid (Ethanol 96%, 24 hrs): 18.682 mg/mL
Average conc. salicylic acid (Ethanol 96%, 48 hrs): 21.522 mg/mL
Average conc. salicylic acid (Tert-butyl alcohol, 0 hr): 0.543 mg/mL
Average conc. salicylic acid (Tert-butyl alcohol, 72 Hrs): 18.135 mg/mL
Average conc. salicylic acid (Tert-butyl alcohol, 6 hrs): 0.988 mg/mL
Average conc. salicylic acid (Tert-butyl alcohol, 12 hrs): 1.669 mg/mL
Average conc. salicylic acid (Tert-butyl alcohol, 24 hrs): 9.261 mg/mL
Average conc. salicylic acid (Tert-butyl alcohol, 48 hrs): 16.238 mg/mL
Average conc. salicylic acid (Water, 0 hr): 0.269 mg/mL
Average conc. salicylic acid (Water, 72 Hrs): 0.904 mg/mL
Average conc. salicylic acid (Water, 6 hrs): 0.289 mg/mL
Average conc. salicylic acid (Water, 12 hrs): 0.312 mg/mL
Average conc. salicylic acid (Water, 24 hrs): 0.574 mg/mL
Average conc. salicylic acid (Water, 48 hrs): 0.854 mg/mL
% of salicylic acid (acidified ethanol, up to 72 hours (Limit Not more than 5%)): less than 2%
SMILES: CC(=O)Oc1ccccc1C(=O)O [ASA, Acetyl salicylic acid]
